These results are taken from patent US10517926B2, “Oligopeptide having proinflammatory cytokine secretion-inhibiting activity” (Osaka University, priority 2015, dated 2019).

The subject of one series is MG6 cells. As to the kind of experiment: Stability of RANKL peptide: activity after storage in water. The following applies: 2 mg/ml in water, 4° C., 208 days. The series is classed as cell-based, mouse. As for the experimental part: MG6 cells (mouse-derived microglial cell line) were cultured in a DMEM medium (+4% FBS) containing MHP1 or MHP2 (final concentration: 50 or 100 μg/ml), and LPS (final concentration: 2 ng/ml) for 24 hours by a standard method. After culture, the concentrations of IL-6 and TNFα in the medium were measured by the ELISA method. In the Examples of the present application, the ELISA method was performed using a kit (Quantikine ELISA Mouse TNF-α or Quantikine ELISA Mouse IL-6, produced by R&D Systems). The results are shown in FIG. 1 (IL-6) and FIG. 2 (TNFα).
MHP1 was dissolved in water to a concentration of 2 mg/ml, and stored at 4° C. for 208 days. Thereafter, the proinflammatory cytokine secretion-inhibiting effect of this MHP1 was examined in the same manner as in Example 2, except that the final concentration of MHP1 was set to 100 μg/ml.

The test system of series [1] is neuron-glia mixed culture. As to the kind of experiment: TNFα secretion by LPS in neuron-glia mixed culture system. The series is classed as cell-based, mouse. The method, then:
Neuronal tissue (a mixture of neurons and glial cells) was removed from a mouse fetus 21 days after fertilization (21st fetal day), and cultured in Neurobasal medium (+B-27, +5% HS) for 9 days. Then, the cells were divided into 3 groups (A to C groups), and subjected to the following treatments.
The cells were cultured for 24 hours after the medium was changed to a medium (Neurobasal A/N2 supplement) containing MHP1 (final concentration: 1, 10, 30, or 50 μg/ml). Then, LPS (final concentration: 10 μg/ml) was added to the medium, and the cells were further cultured for 24 hours. After culture, the concentration of TNFα in the medium was measured by the ELISA method.
The cells were cultured for 24 hours after the medium was changed to a medium (Neurobasal A/N2 supplement) containing MHP1 (final concentration: 30 or 50 μg/ml) and LPS (final concentration: 10 μg/ml). After culture, the concentration of TNFα in the medium was measured by the ELISA method.

Regarding “LMVYVVKTSIKIPSSHNLMKGGSTKNWSGN (listed as Mus musculus) [MHP1]”, in the series with MG6 cells, the stability result was “high”. Further, the “proinflammatory cytokine secretion-inhibiting effect after long-term storage” value with MG6 cells (tested at 100 μg/ml on MG6 cells, FIG. 18) is given as “exhibited a proinflammatory cytokine secretion-inhibiting effect”. Besides, the “increase in the amount of TNFα secretion by LPS” value in series [1] (pretreatment (A group), MHP1 1, 10, 30 or 50 μg/ml 24 hours before LPS 10 μg/ml, FIG. 5) is recorded as “suppressed”; in series [1] (simultaneous treatment (C group), MHP1 30 or 50 μg/ml with LPS 10 μg/ml, 24 hours, FIG. 7), “suppressed”.
